From ChEMBL document CHEMBL3085722, “Stereochemical assignment of the fungal metabolites pestalotiopsones D and E through enantiopure synthesis” (J Nat Prod, 2013)
Values after ≈ are worked out from the molar mass of the structure shown.

What was measured:
Format in all cases: functional, organism-based
Escherichia coli = assay: Antibacterial activity against Escherichia coli after 18 hrs by turbidity assay
[1] = test system: Staphylococcus epidermidis; assay: Antibacterial activity against Staphylococcus epidermidis after 18 hrs by turbidity assay
[2] = test system: Mycolicibacterium smegmatis; assay: Antibacterial activity against Mycobacterium smegmatis after 18 hrs by turbidity assay
Pseudomonas aeruginosa = assay: Antibacterial activity against Pseudomonas aeruginosa after 18 hrs by turbidity assay

MIC (Escherichia coli) | MIC [1] | MIC [2] | MIC (Pseudomonas aeruginosa) | IC50 (Escherichia coli) | IC50 [1] | IC50 [2] | IC50 (Pseudomonas aeruginosa) | SMILES
> 500 µg/mL | > 500 µg/mL | > 500 µg/mL | > 500 µg/mL |  |  |  |  | COC(=O)Cc1cc(OC)cc2oc(CCCCC[C@@H](C)OC(C)=O)cc(=O)c12
> 500 µg/mL | > 500 µg/mL | > 500 µg/mL | > 500 µg/mL |  |  |  |  | CCOC(=O)Cc1cc(O)cc2oc(CCCCC[C@@H](C)O)cc(=O)c12
> 500 µg/mL | > 500 µg/mL | > 500 µg/mL | > 500 µg/mL |  |  |  |  | COC(=O)Cc1cc(O)cc2oc(CCCCC[C@@H](C)O)cc(=O)c12
> 500 µg/mL | > 500 µg/mL | > 500 µg/mL | > 500 µg/mL | > 500 µg/mL | > 500 µg/mL | > 500 µg/mL | > 500 µg/mL | COC(=O)Cc1cc(O)cc2oc(CCCCC[C@H](C)O)cc(=O)c12
> 500 µg/mL | > 500 µg/mL | > 500 µg/mL | > 500 µg/mL | > 500 µg/mL | > 500 µg/mL | 484 µg/mL (≈ 1340 µM) | 440 µg/mL (≈ 1210 µM) | CCOC(=O)Cc1cc(O)cc2oc(CCCCC[C@H](C)O)cc(=O)c12
> 500 µg/mL | > 500 µg/mL | > 500 µg/mL | > 500 µg/mL | > 500 µg/mL | > 500 µg/mL | > 500 µg/mL | 465 µg/mL (≈ 1150 µM) | COC(=O)Cc1cc(OC)cc2oc(CCCCC[C@H](C)OC(C)=O)cc(=O)c12
> 500 µg/mL | > 500 µg/mL | > 500 µg/mL | > 500 µg/mL |  |  |  |  | COC(=O)Cc1cc(OC)cc2c1C(=O)CC(CCCCC[C@@H](C)OC(C)=O)O2 (mixture of isomers)
> 500 µg/mL | > 500 µg/mL | > 500 µg/mL | > 500 µg/mL | > 500 µg/mL | > 500 µg/mL | 492 µg/mL | 445 µg/mL | COC(=O)Cc1cc(OC)cc2c1C(=O)CC(CCCCC[C@H](C)OC(C)=O)O2 (mixture of isomers)
 |  |  |  | < 1 µg/mL | 90 µg/mL (≈ 186 µM) | < 1 µg/mL | 209 µg/mL (≈ 431 µM) | NC[C@H]1O[C@H](O[C@H]2[C@H](O)[C@@H](O[C@H]3O[C@H](CO)[C@@H](O)[C@H](N)[C@H]3O)[C@H](N)C[C@@H]2N)[C@H](O)[C@@H](O)[C@@H]1O [KANAMYCIN]
